# Measurements published in US20260297131A1, “COMPOSITIONS AND METHODS FOR PEPTIDE-BASED MODULATORS OF HUMAN PAPILLOMAVIRUS ONCOPROTEIN E6” (priority 2023, published 2026).
# Where two headings read alike, the source gives them in different places. Square brackets hold non-standard residues; d marks the D form. Peptide text beside a SMILES is read from it. * marks the point of attachment. Acetyl(9-fluorenyl) = O=C(CC1c2ccccc2-c2ccccc21)*; Anthracene1carbonyl = O=C(c1cccc2cc3ccccc3cc12)*; 2Nal = N[C@@H](Cc1ccc2ccccc2c1)C(=O)O; Gly(cPent) = N[C@H](C(=O)O)C1CCCC1; Aad = N[C@@H](CCCC(=O)O)C(=O)O; Cba = N[C@@H](CC1CCC1)C(=O)O; Aib = CC(C)(N)C(=O)O; Dha = C=C(N)C(=O)O
# Experiments:
# MBP-16E6 [1] = biological target: T1, MBP-16E6 (Human papillomavirus 16, UniProt P03126, C104S/C118S/C147S/C87S); conditions: 1 μM MBP-16E6, Dha peptide mixture 12 μM, 2 h, 37° C.
# MBP-16E6 [2] = biological target: T1, MBP-16E6
# MBP-16E6 L57A = MBP-16E6 L57A (Human papillomavirus 16, UniProt P03126, C104S/C118S/C147S/C87S/L57A); conditions: 10 μM reactide 18
# MBP-16E6 [3] = biological target: T1, MBP-16E6; conditions: for crosslinking to MBP-16E6: LC-MS
# MBP-16E6 [4] = biological target: T1, MBP-16E6; remark: listed apart in the source
# MBP-16E6 C58S = MBP-16E6 C58S (Human papillomavirus 16, UniProt P03126, C104S/C118S/C147S/C58S/C87S); conditions: 12 h, PBS, 37° C.
# Sumo-MDM2 = Sumo-MDM2 (Homo sapiens, UniProt Q00987); assay: Crosslinking in a protein mixture, Sumo-MDM2; format: binding; conditions: 10 μM peptide, 37° C., 12 h
# [5] = biological target: bovine serum albumin (BSA) (Bos taurus, UniProt P02769); assay: Crosslinking in a protein mixture, BSA; format: binding; conditions: 10 μM peptide, 37° C., 12 h
# 16E6/E6AP = 16E6/E6AP (Human papillomavirus 16, UniProt P03126, C104S/C118S/C147S/C87S); conditions: 1 μM MBP-16E6
# THRA = biological target: T2, THRA (Homo sapiens, UniProt P10827); format: binding
# T2 sequence (P10827 148-410 limits assumed): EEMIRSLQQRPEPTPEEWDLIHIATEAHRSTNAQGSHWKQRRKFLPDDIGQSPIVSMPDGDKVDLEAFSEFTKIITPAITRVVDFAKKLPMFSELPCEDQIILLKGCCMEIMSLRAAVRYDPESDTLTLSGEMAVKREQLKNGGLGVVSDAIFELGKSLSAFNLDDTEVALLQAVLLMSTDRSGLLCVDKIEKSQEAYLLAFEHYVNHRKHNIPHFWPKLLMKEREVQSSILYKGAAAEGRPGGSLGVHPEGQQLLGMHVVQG
# Sumo-MDM2, sequence (Q00987 25-109): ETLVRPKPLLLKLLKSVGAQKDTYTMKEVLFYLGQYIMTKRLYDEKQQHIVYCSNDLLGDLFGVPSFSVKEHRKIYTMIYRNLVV
# bovine serum albumin (BSA), sequence (P02769 25-607): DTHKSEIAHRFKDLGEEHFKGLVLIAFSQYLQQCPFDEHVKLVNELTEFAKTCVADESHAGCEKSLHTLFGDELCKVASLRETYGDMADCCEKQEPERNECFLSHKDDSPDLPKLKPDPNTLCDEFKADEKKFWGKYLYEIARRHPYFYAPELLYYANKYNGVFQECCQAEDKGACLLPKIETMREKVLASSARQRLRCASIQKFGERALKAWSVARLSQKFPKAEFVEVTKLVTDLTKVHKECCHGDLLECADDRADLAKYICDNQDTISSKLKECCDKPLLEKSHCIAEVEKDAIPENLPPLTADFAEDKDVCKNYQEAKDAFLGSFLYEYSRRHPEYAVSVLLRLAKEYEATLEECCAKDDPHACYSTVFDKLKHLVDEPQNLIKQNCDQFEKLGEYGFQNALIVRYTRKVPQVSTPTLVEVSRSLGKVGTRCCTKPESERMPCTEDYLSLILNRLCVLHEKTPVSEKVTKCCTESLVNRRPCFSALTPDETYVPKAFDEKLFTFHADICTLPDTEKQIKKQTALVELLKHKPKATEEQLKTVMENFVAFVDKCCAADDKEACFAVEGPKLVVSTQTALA
SMILES,mono-crosslink yield in competitive mixture (MBP-16E6 [1]),improved affinity compared to parent reactide ELT-DHA9G (MBP-16E6 [2]),crosslinking to L57A (MBP-16E6 L57A),"mono-crosslinking (MBP-16E6 [3]; 10 μM reactide, 1 μM MBP-16E6, PBS, 37° C., 2 h)",crosslinking to MBP-16E6 (MBP-16E6 [3]),"improvement over E3 (ELT-DHA9G) (MBP-16E6 [4]; kinetic study, kinact/Ki)",kinact/Ki (MBP-16E6 [4]; role: inhibitor),"kinact (MBP-16E6 [4]; role: inhibitor, first-order rate constant, steady-state approximation)",crosslinking to C58S (MBP-16E6 C58S; 10 μM reactide 18),modification of MDM2 (Sumo-MDM2),modification of BSA [5],BLI response signal to immobilized E6AP protein (16E6/E6AP),"mono-crosslinked conversion of 16E6 in protein mixture (MBP-16E6 [3]; protein mixture with BSA and Sumo-MDM2 (1 μM each), 10 μM peptide, 37° C., 12 h)",crosslinking to C58S (MBP-16E6 C58S; 3 μM peptide),"crosslinking to C58S (MBP-16E6 C58S; 3 μM peptide, listed as peptide 13)",crosslink to THRA (THRA)
C=C(NC(=O)[C@H](CC(C)C)NC(=O)[C@H](CC1CCC1)NC(=O)[C@H](CCC(=O)O)NC(=O)C(C)(C)NC(=O)[C@H](CC(C)C)NC(=O)[C@@H](NC(=O)[C@H](Cc1ccc2ccccc2c1)NC(=O)[C@@H](N)CCCC(=O)O)C1CCCC1)C(=O)N[C@@H](CCC(=O)O)C(=O)N[C@@H](CCC(=O)O)C(=O)N[C@@H](CCCNC(=N)N)C(N)=O [peptide 18] (H-[Aad][2Nal][Gly(cPent)]L[Aib]E[Cba]L[Dha]EER-NH2),83%,50 fold,no crosslinking,> 95%,Quantitative mono-crosslinked,50 fold,22700 M⁻¹ s⁻¹,0.018 s⁻¹,No crosslinking,–,–,–,–,–,–,–
C=C(NC(=O)[C@H](CC(C)C)NC(=O)[C@H](CC(C)C)NC(=O)[C@H](CCC(=O)O)NC(=O)[C@H](CCC(N)=O)NC(=O)[C@H](CC(C)C)NC(=O)[C@@H](NC(=O)[C@H](CC(C)C)NC(=O)[C@H](CCC(=O)O)NC(=O)[C@H](C)NC(=O)[C@H](CO)NC(=O)[C@H](CCC(N)=O)NC(=O)[C@@H]1CCCN1C(=O)[C@@H](NC(=O)CC1c2ccccc2-c2ccccc21)[C@@H](C)CC)[C@@H](C)O)C(=O)N[C@@H](CCCNC(=N)N)C(=O)N[C@@H](CCCNC(=N)N)C(=O)N[C@@H](CCCCN)C(=O)N[C@@H](CCCCN)C(=O)N[C@@H](CCCCNC(=O)c1cccc2cc3ccccc3cc12)C(N)=O [reactide 13] ({Acetyl(9-fluorenyl)}-IPQSAELTLQELL[Dha]RRKKK(Anthracene1carbonyl)-NH2),–,–,–,–,Quantitative mono-crosslinked,–,–,–,–,no observable modifications,no observable modifications,significantly decreased BLI response signal,> 95%,No crosslinking,no appreciable amount of reaction product,no crosslink
